Laboratory results as given in patent US5413787A, “Bioparyl, a biological regulator, active against various pathologies” (priority 1988, dated 1995).

Key:
[1] = system: RNases in plasma of healthy persons; assay: Effect of iron on in vitro activity of RNases of healthy persons; assay type: biochemical, human; settings: FIG. 5
Description: (§1) Bioparyl dissolved in distilled water (pH 7.0, 5 mg/ml) is used (0.01 to 0.05 ml). Incubation medium (0.15 ml final volume) contains: Tris-HCl buffer, 10^-2 M pH 7.60: 0.05 ml; ^3 H-RNA (r-RNA or 4 S RNA), 100 μg, 15,000 CPM: 0.05 ml; ten-times diluted plasma: 0.01 to 0.05 ml. After incubation at 36° C. for 10 min. (water bath) (generally necessary conditions but that may vary in case of necessity), the reaction is stopped by addition of 3 ml trichloroacetic acid (TCA) (5%); the tubes are cooled in order to assure a good precipitation of proteins and undegraded ^3 H-RNA.
(§2) The precipitate is filtered on glass millipore (GF/C, Whatman), washed with 5% TCA solution then with 95° ethyl alcohol. The filters are dried and the radioactivity determined in a scintillation spectrometer. The results are expressed as percent of non-degraded radioactive RNA, the radioactivity of initial intact RNA being taken as 100%.
(§3) One knows that the RNases enable the furnishing of the RNA primers necessary for the replication of DNA, and that the primers accepted by DNA from healthy tissues are not the same as the primers required for replication of DNA from cancer tissues. Thus, regulation of RNases (enzymes able to provide primers in cells)is a capital phenomenon in carcinology and virology.

[2] = system: RNases from patients affected by cancers, auto-immune diseases or viral pathologies; assay: Effect of iron on in vitro activity of RNases from patients; assay type: biochemical, human; settings: cancers (leukemia, solid cancers)
Description: as §1, §2, §3

[3] = system: RNases from human fibrosis skin; assay: In vitro RNase activity of radiation-induced skin fibrosis extract (r-RNA degradation); assay type: biochemical; settings: FIG. 7
Description: Sample of skin fibrosis induced by radiation has been broken in a mortar (4° C.) in the presence of Tris-HCl buffer 0.02M containing 0.06M KCl and 0.001M MgCl2. Final volume: 1.5 ml. The activity of RNases present in this extract has been tested with 4 S RNA and ribosomal RNA (r-RNA); 0.01; 0.02; 0.03 and 0.04 ml of enzyme extract were incubated in the presence of radioactive ^3 H-r-RNA or ^3 H-4 S RNA. Incubation time: 15 min. at 36° C. The results are illustrated in FIG. 7. Degradation of labelled RNA is linear in function of increasing concentration of the extract. r-RNA is more rapidly degraded than 4 S RNA. […] Ferric iron (FeCl3), at low concentrations, stimulates r-RNA degradation; but at higher concentrations it inhibits it.

## [Cl][Fe]([Cl])[Cl] [Ferric iron]
[1]
  in vitro activity of RNases of healthy persons under iron: without effect
[2]
  in vitro activity of RNases from patients under ferric iron: strongly accelerates
[3]; at higher concentrations
  r-RNA degradation by fibrosis skin RNases, FeCl3 higher concentrations: inhibits
[3]; at low concentrations
  r-RNA degradation by fibrosis skin RNases, FeCl3 low concentrations: stimulates
